{"source": "patent US20130209578A1", "about": "“Combinatory Cancer Treatment” (UNIVERSITE DE MONTREAL, priority 2010, published 2013)", "key": {"[1]": {"system": "primary AML specimens", "assay": "colony forming assay in methyl cellulose, primary AML specimens", "assay_type": "cell-based, human", "conditions": "Flt3 mutant versus Flt3 wildtype specimens, drug alone", "from_the_text": "(§1) FIG. 1 is a table summarizing the results of colony forming assays in methyl cellulose for primary AML specimens (purchased from the BLCQ) or specimens isolated from healthy volunteers (purchased from Stem Cell Technologies). A colony experiment typically runs for 14 days. A special media which supports hematopoietic cell growth was used (Methocult purchased from Stem Cell Technologies). Mutant refers to the presence of a mutation in the Flt3 gene (a common leukemia marker) and wildtype refers to Flt3 not being mutated in this specimen. Each experiment is carried out in quintuplicate with colony number plus/minus standard deviations given. […] Untreated controls were carried out in parallel for every single experiment. Experiments were done on specimens as described."}, "[2]": {"system": "M1 and M2 AML specimens (with normal eIF4E levels)", "assay": "methyl-cellulose colony assay, M1 and M2 AML specimens with normal eIF4E", "assay_type": "cell-based, human", "conditions": "ribavirin 1 micromolar", "from_the_text": "as §1"}, "[3]": {"molecular_target": "T1, eIF4E (Homo sapiens, UniProt P06730)", "T1 construct": "endogenous in cells; host or cells: FaDu cells", "T1 sequence (P06730 whole entry)": "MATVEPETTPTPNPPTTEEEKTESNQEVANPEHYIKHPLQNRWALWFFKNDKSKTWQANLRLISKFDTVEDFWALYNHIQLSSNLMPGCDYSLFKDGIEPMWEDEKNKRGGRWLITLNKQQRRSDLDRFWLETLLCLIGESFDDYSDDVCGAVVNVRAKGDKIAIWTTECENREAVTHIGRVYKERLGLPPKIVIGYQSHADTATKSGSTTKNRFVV", "assay": "3H ribavirin immunoprecipitation with eIF4E antibodies in FaDu cells", "assay_type": "binding", "conditions": "24 h, 0.66 micromolar 3H ribavirin, formaldehyde cross-linked", "from_the_text": "Equal amounts of lysate were used for immunoprecipitation with antibodies to eIF4E or IgG controls. After 6 washes (W), beads were eluted in SDS Buffer. ⅕ of volume was used for western blot analysis and the rest for ^3H measurement. […] Input is a positive control showing that eIF4E is present in the cell lysate.\nFIG. 3 is a western blot control for FIG. 2. This western blot confirms that antibodies to eIF4E immunoprecipitated eIF4E and that eIF4E was not found in the IgG control immunoprecipitation."}, "[4]": {"system": "KG-1a cells", "assay": "western blot of eIF4E targets, apoptosis and autophagy markers in KG-1a cells", "assay_type": "cell-based, human", "conditions": "for Akt activation / LC3B level and cleavage (autophagy marker) / levels of eIF4E downstream targets XIAP, Mdm2, Mcl-1: KG1 cells; for levels of eIF4E downstream targets XIAP, Mdm2, Mcl-1: ribavirin 10 μM, azacytidine 3 μM"}, "[5]": {"system": "THP-1 cells", "assay": "western blot of eIF4E targets, apoptosis and autophagy markers in THP-1 cells", "assay_type": "cell-based, human", "conditions": "for HoxA9 protein levels: FIG. 7"}, "[6]": {"system": "acute myeloid leukemia (AML)", "assay": "phase II clinical trial of ribavirin monotherapy in leukemia (AML) patients, NCT00559091", "assay_type": "in vivo, human", "from_the_text": "Thus, because of its properties, the eukaryotic translation initiation factor, eIF4E, has become an appealing clinical target to treat patients diagnosed with cancer, in particular AML. […] 114, no. 2 (Jul. 9, 2009, Epub 2009 May 11).\nIn conducting clinical trial no. […] In some patients, monotherapy had no impact. […] In fact, leukemic cells become resistant to nearly all monotherapies within two (2) to four (4) months; such being due to naturally occurring phenomena such as selective evolution (Abboud et al., “Induction therapy for elderly patients with acute myeloid leukemia”, Blood Reviews (2008) 22: 311-320, and Melnick et al., “MDS and secondary AML display unique patterns and abundance of aberrant DNA methylation”, Blood. 2009 Oct. 15; 114(16):3448-58. Epub 2009 Aug. 3). To overcome this issue of resistance, it is not uncommon in the clinical field, and as for most treatments involving a monotherapy, to follow-up this treatment with chemotherapy, as it taught in Abboud et al. (supra) and Melnick et al. (supra). As it is well known, the use of chemotherapeutic agents has many secondary effects on patients, including and not limited to damage of normal cells, anemia, bleeding, constipation, fatigue, hair loss, infections, memory changes, swelling, and even death amongst many others. Conventional chemotherapy also requires a stay at the hospital so as to administer the chemotherapeutic agent(s) as well as supportive care for the side effects. In this connection, Abboud et al., in Blood Reviews (2008, supra), review treatment strategies of patients over 60 (which are the majority of AML patients), diagnosed with AML, and the morbidities and mortalities associated with chemotherapy.\nRibavirin was used extensively as a broad-spectrum anti-viral therapy."}, "[7]": {"molecular_target": "purified eIF4E", "conditions": "cited from earlier work"}, "[8]": {"conditions": "Assouline et al, Blood 2009; cited from earlier work"}, "[9]": {"system": "M1 AML specimen with elevated eIF4E (M1-high4E)", "assay": "methyl-cellulose colony assay, M1 AML specimen with elevated eIF4E", "assay_type": "cell-based, human", "conditions": "ribavirin 1 micromolar, azacytidine 3 micromolar", "from_the_text": "as §1"}}, "note": "“Also recorded” adds a separate entry of the source.", "data": [{"molecule": "NC(=O)c1ncn([C@@H]2O[C@H](CO)[C@@H](O)[C@H]2O)n1", "note": "[ribavirin, 1-[(2R,3R,4S,5R)-3,4-dihydroxy-5-(hydroxymethyl)oxolan-2-yl]-1H-1,2,4-triazole-3-carboxamide]", "values": [{"measurement": "dependence of the effect on colony growth on Flt3 status", "setting": "[1]", "result": "independent of Flt3 status"}, {"measurement": "colonies versus untreated cells", "setting": "[2]", "result": "70-80%"}, {"measurement": "drop in colonies versus untreated cells", "setting": "[2]", "result": "~25", "unit": "%"}, {"measurement": "binding of 3H ribavirin to eIF4E in living cells", "setting": "[3]", "result": "binds directly to eIF4E in living cells; also recorded: eIF4E binds ^3H ribavirin"}, {"measurement": "Akt activation", "setting": "[4]", "result": "reduces Akt activation"}, {"measurement": "LC3B level and cleavage (autophagy marker)", "setting": "[4]", "result": "elevated LC3B levels"}, {"measurement": "levels of eIF4E downstream targets XIAP, Mdm2, Mcl-1", "setting": "[4]", "result": "reduced the expression"}, {"measurement": "eIF4E protein levels", "setting": "[4]; KG-1a and THP-1 cells, ribavirin 48 hours", "result": "do not change"}, {"measurement": "mdm2 protein level (eIF4E mRNA export target)", "setting": "[4]; KG-1a cells, 48 hours", "result": "downregulated"}, {"measurement": "HoxA9 protein levels", "setting": "[5]", "result": "does not reverse this"}, {"measurement": "mdm2 protein level (eIF4E mRNA export target)", "setting": "[5]; THP-1 cells, 48 hours", "result": "downregulated"}, {"measurement": "clinical response of patients", "setting": "[6]; Canada-wide clinical trial", "result": "striking improvement"}, {"measurement": "resistance to monotherapy in patients", "setting": "[6]; clinical trial no. NCT00559091", "result": "most if not all patients became resistant; also recorded: all eventually developed resistance"}, {"measurement": "eIF4E protein (and RNA) levels in patients", "setting": "[6]; phase II clinical trial, ribavirin monotherapy", "result": "downregulation"}, {"measurement": "Kd", "setting": "[7]; Kentsis 2004, read-out: affinity constant for eIF4E", "result": "~1000", "unit": "nM"}, {"measurement": "Kd for purified eIF4E in vitro", "setting": "[7]; Kentsis et al. 2004", "result": "low micromolar range"}, {"measurement": "concentration in plasma from patients", "setting": "[8]", "result": "10 to 20", "unit": "µM"}]}, {"molecule": "Nc1ncn([C@@H]2O[C@H](CO)[C@@H](O)[C@H]2O)c(=O)n1", "note": "[azacytidine, 4-amino-1-β-D-ribofuranosyl-1,3,5-triazin-2(1H)-one]", "values": [{"measurement": "dependence of the effect on colony growth on Flt3 status", "setting": "[1]", "result": "independent of Flt3 status"}, {"measurement": "colonies versus untreated controls", "setting": "[9]", "result": "about 80%"}, {"measurement": "levels of NFkappaB subunit p65", "setting": "[4]; FIG. 6", "result": "elevated"}, {"measurement": "Akt activation", "setting": "[4]", "result": "leads to Akt activation"}, {"measurement": "LC3B level and cleavage (autophagy marker)", "setting": "[4]", "result": "increases the total amount of LC3B protein"}, {"measurement": "levels of eIF4E downstream targets XIAP, Mdm2, Mcl-1", "setting": "[4]", "result": "gross increase; also recorded: upregulated"}, {"measurement": "HoxA9 protein levels", "setting": "[5]", "result": "elevates"}, {"measurement": "levels of eIF4E downstream targets XIAP, mdm2, Mcl-1", "setting": "[5]; THP-1 cells", "result": "upregulated; also recorded: elevated"}]}]}
